# Measurements taken from ChEMBL document CHEMBL3885861, “Open TG-GATES”.
# Species on record: Rattus norvegicus
# Experiment: Open TG-GATES - Regimen: Daily Repeat
# Type: toxicity, organism-based, Sprague-Dawley
# Design: regimen Daily Repeat, gender Male, age 6 weeks
# Conditions: in vivo, po, 750 mg/kg, route gavage, dose level High; for APTT / Bas / Eos / Fbg / Hb / Ht / Lym / MCH / MCHC / MCV / Mono / Neu / PT / Plat / RBC / Ret / WBC: tissue Blood; for KIDNEY_L / KIDNEY_R / KIDNEY_TOTAL: tissue Kidney; for LIVER: tissue Liver; for A/G / ALP / ALT / AST / BUN / CRE / Ca / Cl / DBIL / GLC / IP / K / LDH / Na / PL / RALB / TBIL / TC / TG / TP / gamma-GTP: tissue Plasma
structure (smiles),measurement,setting,value
CN(C/C=C/C#CC(C)(C)C)Cc1cccc2ccccc12 [TERBINAFINE],TERMINAL_BW,"72 h, time 3 day",217.7 g
same,APTT,"72 h, time 3 day",22.6 s
same,Bas,"72 h, time 3 day",0.8%
same,Eos,"72 h, time 3 day",0.8%
same,Fbg,"72 h, time 3 day",200.6 mg/dL
same,Hb,"72 h, time 3 day",14.1 g/dL
same,Ht,"72 h, time 3 day",41.1%
same,Lym,"72 h, time 3 day",82.8%
same,MCH,"72 h, time 3 day",20.9 pg
same,MCHC,"72 h, time 3 day",34.2%
same,MCV,"72 h, time 3 day",61 fL
same,Mono,"72 h, time 3 day",2.6%
same,Neu,"72 h, time 3 day",13%
same,PT,"72 h, time 3 day",12.5 s
same,Plat,"72 h, time 3 day",137.3 x10_4/uL
same,RBC,"72 h, time 3 day",673.8 x10_4/ul
same,Ret,"72 h, time 3 day",4.5%
same,WBC,"72 h, time 3 day",64.8 x10_2/uL
same,KIDNEY_L,"72 h, time 3 day",1 g
same,KIDNEY_R,"72 h, time 3 day",1.1 g
same,KIDNEY_TOTAL,"72 h, time 3 day",2.1 g
same,LIVER,"72 h, time 3 day",11.4 g
same,A/G,"72 h, time 3 day",2
same,ALP,"72 h, time 3 day",748.6 IU/L
same,ALT,"72 h, time 3 day",34.6 IU/L
same,AST,"72 h, time 3 day",62.6 IU/L
same,BUN,"72 h, time 3 day",10.6 mg/dL
same,CRE,"72 h, time 3 day",0.4 mg/dL
same,Ca,"72 h, time 3 day",9.5 mg/dL
same,Cl,"72 h, time 3 day",102.8 meq/L
same,DBIL,"72 h, time 3 day",0.09 mg/dL
same,GLC,"72 h, time 3 day",172 mg/dL
same,IP,"72 h, time 3 day",9.2 mg/dL
same,K,"72 h, time 3 day",3.8 meq/L
same,LDH,"72 h, time 3 day",207.4 IU/L
same,Na,"72 h, time 3 day",140.8 meq/L
same,PL,"72 h, time 3 day",123.2 mg/dL
same,RALB,"72 h, time 3 day",3.6 g/dL
same,TBIL,"72 h, time 3 day",0.2 mg/dL
same,TC,"72 h, time 3 day",81 mg/dL
same,TG,"72 h, time 3 day",19.2 mg/dL
same,TP,"72 h, time 3 day",5.4 g/dL
same,gamma-GTP,"72 h, time 3 day",1.8 IU/L
same,TERMINAL_BW,"[…], time 7 day",187.9 g
same,TERMINAL_BW,"[…], time 14 day",255.9 g
same,TERMINAL_BW,"[…], time 28 day",360.5 g
same,APTT,"[…], time 7 day",45.7 s
same,Bas,"[…], time 7 day",1%
same,Eos,"[…], time 7 day",0.6%
same,Fbg,"[…], time 7 day",187.6 mg/dL
same,Hb,"[…], time 7 day",15.9 g/dL
same,Ht,"[…], time 7 day",45.2%
same,Lym,"[…], time 7 day",77.6%
same,MCH,"[…], time 7 day",21.1 pg
same,MCHC,"[…], time 7 day",35.2%
same,MCV,"[…], time 7 day",59.8 fL
same,Mono,"[…], time 7 day",4.6%
same,Neu,"[…], time 7 day",15.8%
same,PT,"[…], time 7 day",30.8 s
same,Plat,"[…], time 7 day",146 x10_4/uL
same,RBC,"[…], time 7 day",755 x10_4/ul
same,Ret,"[…], time 7 day",0.3%
same,WBC,"[…], time 7 day",82.6 x10_2/uL
same,APTT,"[…], time 14 day",21.4 s
same,Bas,"[…], time 14 day",0.6%
same,Eos,"[…], time 14 day",0.6%
same,Fbg,"[…], time 14 day",198.4 mg/dL
same,Hb,"[…], time 14 day",13.8 g/dL
same,Ht,"[…], time 14 day",40.2%
same,Lym,"[…], time 14 day",70.4%
same,MCH,"[…], time 14 day",20.7 pg
same,MCHC,"[…], time 14 day",34.3%
same,MCV,"[…], time 14 day",60.3 fL
same,Mono,"[…], time 14 day",3.2%
same,Neu,"[…], time 14 day",24.4%
same,PT,"[…], time 14 day",11.9 s
same,Plat,"[…], time 14 day",119.4 x10_4/uL
same,RBC,"[…], time 14 day",667 x10_4/ul
same,Ret,"[…], time 14 day",5.8%
same,WBC,"[…], time 14 day",116.6 x10_2/uL
same,APTT,"[…], time 28 day",26 s
same,Bas,"[…], time 28 day",0.4%
same,Eos,"[…], time 28 day",1%
same,Fbg,"[…], time 28 day",211.6 mg/dL
same,Hb,"[…], time 28 day",14 g/dL
same,Ht,"[…], time 28 day",40.2%
same,Lym,"[…], time 28 day",76.4%
same,MCH,"[…], time 28 day",19.8 pg
same,MCHC,"[…], time 28 day",34.8%
same,MCV,"[…], time 28 day",57.1 fL
same,Mono,"[…], time 28 day",3.4%
same,Neu,"[…], time 28 day",18.4%
same,PT,"[…], time 28 day",12.8 s
same,Plat,"[…], time 28 day",110.7 x10_4/uL
same,RBC,"[…], time 28 day",705.6 x10_4/ul
same,Ret,"[…], time 28 day",2.9%
same,WBC,"[…], time 28 day",115.7 x10_2/uL
same,KIDNEY_L,"[…], time 7 day",1.1 g
same,KIDNEY_R,"[…], time 7 day",1.1 g
same,KIDNEY_TOTAL,"[…], time 7 day",2.2 g
same,KIDNEY_L,"[…], time 14 day",1.2 g
same,KIDNEY_R,"[…], time 14 day",1.3 g
same,KIDNEY_TOTAL,"[…], time 14 day",2.5 g
same,KIDNEY_L,"[…], time 28 day",1.6 g
same,KIDNEY_R,"[…], time 28 day",1.7 g
same,KIDNEY_TOTAL,"[…], time 28 day",3.3 g
same,LIVER,"[…], time 7 day",12.4 g
same,LIVER,"[…], time 14 day",16.5 g
same,LIVER,"[…], time 28 day",21.9 g
same,A/G,"[…], time 7 day",1.9
same,ALP,"[…], time 7 day",692.8 IU/L
same,ALT,"[…], time 7 day",52 IU/L
same,AST,"[…], time 7 day",81.4 IU/L
same,BUN,"[…], time 7 day",14.6 mg/dL
same,CRE,"[…], time 7 day",0.5 mg/dL
same,Ca,"[…], time 7 day",9.1 mg/dL
same,Cl,"[…], time 7 day",103.6 meq/L
same,DBIL,"[…], time 7 day",0.1 mg/dL
same,GLC,"[…], time 7 day",141 mg/dL
same,IP,"[…], time 7 day",7 mg/dL
same,K,"[…], time 7 day",4.6 meq/L
same,LDH,"[…], time 7 day",214.2 IU/L
same,Na,"[…], time 7 day",142.4 meq/L
same,PL,"[…], time 7 day",145 mg/dL
same,RALB,"[…], time 7 day",3.5 g/dL
same,TBIL,"[…], time 7 day",0.2 mg/dL
same,TC,"[…], time 7 day",96.8 mg/dL
same,TG,"[…], time 7 day",21.4 mg/dL
same,TP,"[…], time 7 day",5.3 g/dL
same,gamma-GTP,"[…], time 7 day",2.6 IU/L
same,A/G,"[…], time 14 day",1.7
same,ALP,"[…], time 14 day",536.8 IU/L
same,ALT,"[…], time 14 day",37 IU/L
same,AST,"[…], time 14 day",60.2 IU/L
same,BUN,"[…], time 14 day",15.8 mg/dL
same,CRE,"[…], time 14 day",0.4 mg/dL
same,Ca,"[…], time 14 day",10.4 mg/dL
same,Cl,"[…], time 14 day",103 meq/L
same,DBIL,"[…], time 14 day",0.074 mg/dL
same,GLC,"[…], time 14 day",183 mg/dL
same,IP,"[…], time 14 day",7.8 mg/dL
same,K,"[…], time 14 day",4 meq/L
same,LDH,"[…], time 14 day",151.8 IU/L
same,Na,"[…], time 14 day",142.8 meq/L
same,PL,"[…], time 14 day",136.4 mg/dL
same,RALB,"[…], time 14 day",3.8 g/dL
same,TBIL,"[…], time 14 day",0.1 mg/dL
same,TC,"[…], time 14 day",82 mg/dL
same,TG,"[…], time 14 day",20.4 mg/dL
same,TP,"[…], time 14 day",6.1 g/dL
same,gamma-GTP,"[…], time 14 day",1.2 IU/L
same,A/G,"[…], time 28 day",1.8
same,ALP,"[…], time 28 day",601.2 IU/L
same,ALT,"[…], time 28 day",50 IU/L
same,AST,"[…], time 28 day",65.4 IU/L
same,BUN,"[…], time 28 day",14.8 mg/dL
same,CRE,"[…], time 28 day",0.5 mg/dL
same,Ca,"[…], time 28 day",10.2 mg/dL
same,Cl,"[…], time 28 day",103.2 meq/L
same,DBIL,"[…], time 28 day",0.08 mg/dL
same,GLC,"[…], time 28 day",197.2 mg/dL
same,IP,"[…], time 28 day",8 mg/dL
same,K,"[…], time 28 day",3.8 meq/L
same,LDH,"[…], time 28 day",178.8 IU/L
same,Na,"[…], time 28 day",142.4 meq/L
same,PL,"[…], time 28 day",146.4 mg/dL
same,RALB,"[…], time 28 day",3.9 g/dL
same,TBIL,"[…], time 28 day",0.2 mg/dL
same,TC,"[…], time 28 day",88.4 mg/dL
same,TG,"[…], time 28 day",18.2 mg/dL
same,TP,"[…], time 28 day",6.1 g/dL
same,gamma-GTP,"[…], time 28 day",1.6 IU/L
